Common to all, as to assay type: biochemical
For one assay, the target named is T1, MMP-13 (Homo sapiens, UniProt P45452).
T1 construct: purchased R&D Systems 511-MP
The experiment in a line: In vitro MMP-13 inhibition test. The source says: (§1) The activity strength of the compounds according to the invention towards other MMPs (and therefore their selectivity) is likewise ascertained in in vitro inhibition tests. The MMP-mediated amidolytic cleavage of a suitable peptide substrate also leads here to a fluorescent light increase. The signal intensity of the fluorescent light is directly proportional to the enzyme activity. The active concentration of a test compound at which half of the enzyme is inhibited (50% signal intensity of the fluorescent light) is given as IC50 value.
(§2) Recombinant MMP-13 (R&D Systems, 511-MP) is chemically activated in accordance with the manufacturer's instructions using APMA. 1 μl of the test compound to be analysed (as a solution in DMSO, suitable concentrations e.g. 1 nM to 30 μM) is pipette into 24 μl of activated enzyme (final concentration e.g. 0.1 nM) in reaction buffer (50 mM Tris/HCl pH 7.5, 10 mM CaCl2, 150 mM NaCl, 0.05% Brij®-35) in a white 384-hole microtiter plate (MTP). The enzymatic reaction is started by adding the intramolecularly quenched substrate Mca-Pro-Leu-Gly-Leu-Dpa(Dnp)-Ala-Arg-NH2 (final concentration e.g. 10 μM; R&D Systems, ES-001), such that a total test volume of 50 μl results. The progress of the MMP-13 reaction is measured by measuring the fluorescence intensity (excitation 320 nm, emission 410 nm) over a suitable period (e.g. over 120 min at a temperature of 32° C.).
(§3) The IC50 values were determined for racemates and enantiomers from differently generated DMSO stock solutions. Whereas an automatically produced DMSO stock solution from the internal substance logistics was used for racemates by means of a standard method, in the case of enantiomers a freshly produced, manually prepared DMSO stock solution was used in each case for a more precise direct comparison of the enantiomers with one another.

Another assay deals with T2, MMP-7 (Homo sapiens, UniProt P09237).
T2 construct: purchased R&D Systems 907-MP
T2 sequence (P09237 95-267): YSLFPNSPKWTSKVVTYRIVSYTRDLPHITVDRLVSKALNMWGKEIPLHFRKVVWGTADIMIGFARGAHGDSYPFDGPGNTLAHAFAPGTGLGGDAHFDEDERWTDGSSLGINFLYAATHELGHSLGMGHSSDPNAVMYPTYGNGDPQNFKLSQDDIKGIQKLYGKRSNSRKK
Description: In vitro MMP-7 inhibition test.
Source text: as §1
as §2, with “MMP-7” for “MMP-13”, “907-MP)” for “511-MP)”, “0.5” for “0.1”
as §3

The next assay addresses T3, MMP-8 of the mouse (Mus musculus, UniProt O70138).
T3 construct: purchased R&D Systems 2904-MP
Description: In vitro MMP-8 inhibition test of the mouse.
Source text: as §1
Recombinant MMP-8 of the mouse (R&D Systems, 2904-MP) is chemically activated in accordance with the manufacturer's instructions using APMA. 1 μl of the test compound to be analysed (as a solution in DMSO, suitable concentrations e.g. 1 nM to 30 μM) is pipetted into 24 μl of activated enzyme (final concentration e.g. 2 nM) in reaction buffer (50 mM Tris/HCl pH 7.5, 10 mM CaCl2, 150 mM NaCl, 0.05% Brij®-35) in a white 384-hole microtiter plate (MTP). The enzymatic reaction is started by adding the intramolecularly quenched substrate Mca-Lys-Pro-Leu-Gly-Leu-Dpa(Dnp)-Ala-Arg-NH2 (final concentration e.g. 5 μM; R&D Systems, ES-010), such that a total test volume of 50 μl results. The progress of the MMP-8 reaction is measured by measuring the fluorescence intensity (excitation 320 nm, emission 410 nm) over a suitable period (e.g. over 120 min at a temperature of 32° C.).
(§4) Tables 3A and 3B below give the IC50 values from these tests for the inhibition of rodent MMPs for representative embodiment examples of the present invention and also for two structurally related comparison compounds from the prior art (as racemate and separated enantiomer)→(in part as average values from several independent individual determinations and rounded to two significant places). The IC50 values were determined for racemates and enantiomers from differently generated DMSO stock solutions. Whereas an automatically created DMSO stock solution from the internal substance logistics was used for racemates by means of a standard method, in the case of enantiomers, in each case a freshly produced, manually prepared DMSO stock solution was used for a more precise direct comparison of the enantiomers with one another.

For another assay, the target named is MMP-2 of the rat. The experiment in a line: In vitro MMP-2 inhibition test of the rat.
Source text: as §1
as §2, with “Recombinant MMP-2 of the rat” for “Recombinant MMP-13”, “Systems, 924-MP)” for “Systems, 511-MP)”, “APMA. […]” for “APMA. 1”, “is pipetted” for “is pipette”, “e.g. 1” for “e.g. 0.1”, “the MMP-2” for “the MMP-13”
as §4

The text below walks through data of patent US20170119776A1, “CHIRAL 2,5-DISUBSTITUTED CYCLOPENTANECARBOXYLIC ACID DERIVATIVES AND USE THEREOF” (BAYER PHARMA AKTIENGESELLSCHAFT, priority 2014, published 2017).

For orientation: IC50 means the point on the concentration scale where inhibition reaches its midpoint. A low value points to greater potency.

Structures are written as SMILES.

T3 sequence (O70138 101-465): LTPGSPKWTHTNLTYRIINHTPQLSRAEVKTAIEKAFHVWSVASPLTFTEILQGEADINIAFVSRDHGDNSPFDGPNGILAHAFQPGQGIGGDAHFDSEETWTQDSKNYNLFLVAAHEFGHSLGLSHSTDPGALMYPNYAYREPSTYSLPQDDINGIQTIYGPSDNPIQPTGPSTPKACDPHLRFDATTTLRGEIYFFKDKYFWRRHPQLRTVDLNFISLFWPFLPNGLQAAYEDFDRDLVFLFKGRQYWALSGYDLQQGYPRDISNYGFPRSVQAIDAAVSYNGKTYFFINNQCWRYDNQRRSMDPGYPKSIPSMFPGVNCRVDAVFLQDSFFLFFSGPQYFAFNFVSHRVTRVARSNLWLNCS

Turning to `O=C(O)[C@H]1[C@H](Cn2nnc3ccccc3c2=O)CC[C@@H]1C(=O)c1ccc(OCc2ccccc2)cc1` [Example 2, (+)-(1S,2S,5R)-2-[4-(Benzyloxy)benzoyl]-5-[(4-oxo-1,2,3-benzotriazin-3(4H)-yl)methyl]cyclopentanecarboxylic acid], the IC50 on MMP-13 was found to be 0.0145 µM; at MMP-7 it was 0.42 µM; against MMP-8 of the mouse, 0.0345 µM; on MMP-2 of the rat, 0.0165 µM.

On to `O=C(O)[C@@H]1[C@@H](Cn2nnc3ccccc3c2=O)CC[C@H]1C(=O)c1ccc(-c2ccc(Cl)cc2)cc1` (single isomer, unassigned; enantiomer 2) [Comparative Example A-3, (1RS,2RS,5SR)-2-[(4′-Chlorobiphenyl-4-yl)carbonyl]-5-[(4-oxo-1,2,3-benzotriazin-3(4H)-yl)methyl]cyclopentanecarboxylic acid (enantiomer 2)], for which the IC50 was 0.00082 µM at MMP-13, 0.145 µM on MMP-7, less than 0.00061 µM at MMP-8 of the mouse and less than 0.00061 µM at MMP-2 of the rat.

Regarding `CCCCCOc1ccc(C(=O)CC(CCn2nnc3ccccc3c2=O)C(=O)O)cc1` (single isomer, unassigned; enantiomer 1) [Comparative Example B-2, (+)-4-Oxo-2-[2-(4-oxo-1,2,3-benzotriazin-3(4H)-yl)ethyl]-4-[4-(pentyloxy)phenyl]butanoic acid (enantiomer 1)], the IC50 at MMP-13 came out at 0.36 µM; at MMP-7, 22.5 µM; against MMP-8 of the mouse it was 1.08 µM; on MMP-2 of the rat, 0.145 µM.

On to `CCCCCOc1ccc(C(=O)CC(CCn2nnc3ccccc3c2=O)C(=O)O)cc1` (racemic) [Comparative Example B-1, (+/−)-4-Oxo-2-[2-(4-oxo-1,2,3-benzotriazin-3(4H)-yl)ethyl]-4-[4-(pentyloxy)phenyl]butanoic acid (racemate)], for which the IC50 is 1.8 µM against MMP-13, greater than 40 µM against MMP-7, 2.3 µM against MMP-8 of the mouse and 0.61 µM on MMP-2 of the rat.

Consider `O=C(O)[C@H]1[C@H](Cn2nnc3ccccc3c2=O)CC[C@@H]1C(=O)c1ccc(-c2ccc(Cl)cc2)cc1` (racemic) [Comparative Example A-1, (1RS,2RS,5SR)-2-[(4′-chlorobiphenyl-4-yl)carbonyl]-5-[(4-oxo-1,2,3-benzotriazin-3(4H)-yl)methyl]cyclopentanecarboxylic acid (racemate)], for which the half-inhibitory concentration (IC50) at MMP-13 is 0.0018 µM; against MMP-7, 0.31 µM; at MMP-8 of the mouse it was 0.0011 µM; against MMP-2 of the rat it was 0.0013 µM.

As for `O=C(O)[C@H]1[C@H](Cn2nnc3ccccc3c2=O)CC[C@@H]1C(=O)c1ccc(OCc2ccccc2)cc1` (racemic) [Example 1, (+/−)-(1RS,2RS,5SR)-2-[4-(Benzyloxy)benzoyl]-5-[(4-oxo-1,2,3-benzotriazin-3(4H)-yl)methyl]cyclopentanecarboxylic acid (racemate)], the IC50 against MMP-13 stood at 0.03 µM; against MMP-7, 0.5 µM; against MMP-8 of the mouse, 0.071 µM; at MMP-2 of the rat, 0.033 µM.
